Source: ChEMBL document CHEMBL1201862, “PubChem BioAssay data set” (2004)
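Each compound was tested at five concentrations against cells in 96-well plates for 48 hours. GI50 marks 50% less growth.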 Activity calls are given as the source filed them. Cut-off read from the data, not from the text of the source: active = GI50 up to about 1.1 µM and inactive = higher.

Key:
Test in all cases: NCI-60 cell line screen, 48 h
[1] = system: OVCAR-5
[2] = system: CAKI-1
[3] = system: NCI-H226
[4] = system: UACC-257
[5] = system: Hs-578T
[6] = system: OVCAR-8
[7] = system: MDA-MB-231
[8] = system: UACC-62
[9] = system: HOP-62
[10] = system: SF-539
[11] = system: SN12C
[12] = system: M14
[13] = system: EKVX
[14] = system: OVCAR-4
[15] = system: NCI-H522
[16] = system: HCT-116
[17] = system: HOP-92
[18] = system: MDA-N
[19] = system: Malme-3M
[20] = system: K562

| SMILES | GI50 [1] | GI50 [2] | GI50 [3] | GI50 [4] | GI50 [5] | GI50 [6] | GI50 [7] | GI50 [8] | GI50 [9] | GI50 [10] | GI50 [11] | GI50 [12] | GI50 [13] | GI50 [14] | GI50 [15] | GI50 [16] | GI50 [17] | GI50 [18] | GI50 [19] | GI50 [20] |
| --- | --- | --- | --- | --- | --- | --- | --- | --- | --- | --- | --- | --- | --- | --- | --- | --- | --- | --- | --- | --- |
| C=C(C)c1nc(Oc2ccccc2)nc(Oc2ccccc2)n1 | 16.6 µM (inactive) | 2.06 µM (inactive) | 19.9 µM (inactive) | 9.55 µM (inactive) | 4.49 µM (inactive) | 4.8 µM (inactive) | 14.1 µM (inactive) | 5.78 µM (inactive) | 16.1 µM (inactive) | 6.37 µM (inactive) | 5.6 µM (inactive) | 5.42 µM (inactive) | 13.6 µM (inactive) | 11.2 µM (inactive) | 1.16 µM (inactive) | 3.53 µM (inactive) | 4.93 µM (inactive) | 3.5 µM (inactive) | 13.9 µM (inactive) | 2.23 µM (inactive) |
| C=C(C(=O)OC1C(CO)OC(OCC2CC[C@@H]3C[C@]4(OC(=O)C3=C)C(C)=CC(=O)C24)C(O)C1O)[C@@H]1CCC(CO)C2C(=O)C=C(C)[C@@]2(O)C1 (some centres undefined) | 2.7 µM (inactive) | 1.36 µM (inactive) | 6.58 µM (inactive) | 1.84 µM (inactive) | 4.09 µM (inactive) | 1.43 µM (inactive) | 1.64 µM (inactive) | 1.62 µM (inactive) | 9.4 µM (inactive) | 0.482 µM (active) | 1.32 µM (inactive) | 2.08 µM (inactive) | 2.42 µM (inactive) | 4.01 µM (inactive) | 0.243 µM (active) | 1.22 µM (inactive) | 2.63 µM (inactive) | 1.44 µM (inactive) | 1.46 µM (inactive) | 0.783 µM (active) |
| COc1ccc(NS(=O)(=O)c2ccc3ncn(NS(=O)(=O)c4ccc(I)cc4)c(=O)c3c2)cc1 | > 100 µM (inactive) | > 100 µM (inactive) | 9.86 µM (inactive) | > 100 µM (inactive) | > 100 µM (inactive) | > 100 µM (inactive) | > 100 µM (inactive) | 95.9 µM (inactive) | > 100 µM (inactive) | > 100 µM (inactive) | > 100 µM (inactive) | > 100 µM (inactive) | > 100 µM (inactive) | > 100 µM (inactive) | > 100 µM (inactive) | > 100 µM (inactive) | > 100 µM (inactive) | > 100 µM (inactive) | > 100 µM (inactive) | 7.26 µM (inactive) |
| COC(=O)c1c(C)cccc1/C=C1/Cc2c(C)cccc2C1=O | > 100 µM (inactive) | > 100 µM (inactive) | > 100 µM (inactive) | 3.1 µM (inactive) | 32.6 µM (inactive) | > 100 µM (inactive) | > 100 µM (inactive) | > 100 µM (inactive) | > 100 µM (inactive) | > 100 µM (inactive) | > 100 µM (inactive) |  | > 100 µM (inactive) | > 100 µM (inactive) | > 100 µM (inactive) | > 100 µM (inactive) | 58.1 µM (inactive) | > 100 µM (inactive) | > 100 µM (inactive) |  |
| S=c1nc2[nH]c3ccc(Br)cc3c2n[nH]1 | > 100 µM (inactive) | 69.8 µM (inactive) | 94.6 µM (inactive) | 62.5 µM (inactive) | 28.9 µM (inactive) | 52.1 µM (inactive) | 49.9 µM (inactive) | 30.5 µM (inactive) |  | > 100 µM (inactive) | 66.1 µM (inactive) | 51.5 µM (inactive) | 14.2 µM (inactive) | 25 µM (inactive) | 24.3 µM (inactive) | 70.5 µM (inactive) | > 100 µM (inactive) | 16.7 µM (inactive) | 83.8 µM (inactive) | 47.8 µM (inactive) |
| C=C(CC)C[C@@H]1C[C@]2(C(=O)OC)c3[nH]c4ccccc4c3CCN2C1=O | 21 µM (inactive) | 16.9 µM (inactive) |  | 19.2 µM (inactive) | 14.2 µM (inactive) | 33 µM (inactive) | 24.7 µM (inactive) | 16.9 µM (inactive) | 17.9 µM (inactive) | 16.4 µM (inactive) | 20 µM (inactive) | 15.6 µM (inactive) | 30.8 µM (inactive) | 37.8 µM (inactive) | 14.6 µM (inactive) | 14.7 µM (inactive) | 14.7 µM (inactive) | 17.4 µM (inactive) | 20.7 µM (inactive) | 18.9 µM (inactive) |
| CCN(CC)Cc1cc(Nc2c3ccccc3nc3c2[nH]c2ccccc23)cc(CN(CC)CC)c1O | 2.01 µM (inactive) | 1.77 µM (inactive) | 2.45 µM (inactive) | 1.42 µM (inactive) | 2.15 µM (inactive) | 0.5 µM (active) | 1.05 µM (active) | 1.55 µM (inactive) | 0.598 µM (active) | 1.08 µM (active) | 0.412 µM (active) | 0.303 µM (active) | 1.45 µM (inactive) | 0.468 µM (active) | 0.624 µM (active) | 0.33 µM (active) | 1.14 µM (inactive) | 0.815 µM (active) |  | 0.631 µM (active) |
| CCCCN1C(=O)CC2[C@@H]3CCc4cc(OC(C)=O)ccc4C3CC[C@]2(C)C1=O (some centres undefined) | > 10 µM (inactive) | > 10 µM (inactive) | > 10 µM (inactive) | > 10 µM (inactive) | > 10 µM (inactive) | > 10 µM (inactive) | > 10 µM (inactive) | > 10 µM (inactive) | > 10 µM (inactive) | > 10 µM (inactive) | > 10 µM (inactive) | > 10 µM (inactive) | > 10 µM (inactive) | > 10 µM (inactive) |  | > 10 µM (inactive) | > 10 µM (inactive) | > 10 µM (inactive) | > 10 µM (inactive) | > 10 µM (inactive) |
| CNC(=O)Nc1nc2cc([N+](=O)[O-])ccc2[nH]1 | > 100 µM (inactive) | 61.4 µM (inactive) | > 100 µM (inactive) | > 100 µM (inactive) | > 100 µM (inactive) | > 100 µM (inactive) | > 100 µM (inactive) |  | > 100 µM (inactive) | > 100 µM (inactive) | > 100 µM (inactive) | > 100 µM (inactive) | > 100 µM (inactive) | > 100 µM (inactive) | 44.1 µM (inactive) | > 100 µM (inactive) | 86.1 µM (inactive) | > 100 µM (inactive) | > 100 µM (inactive) | > 100 µM (inactive) |
| Nc1ncc(CN2CCOCC2)c(-c2ccccc2O)n1 | > 100 µM (inactive) | > 100 µM (inactive) | > 100 µM (inactive) | > 100 µM (inactive) | > 100 µM (inactive) | > 100 µM (inactive) | > 100 µM (inactive) | > 100 µM (inactive) | > 100 µM (inactive) | > 100 µM (inactive) | > 100 µM (inactive) | > 100 µM (inactive) | > 100 µM (inactive) | > 100 µM (inactive) |  | > 100 µM (inactive) | > 100 µM (inactive) | > 100 µM (inactive) | > 100 µM (inactive) | > 100 µM (inactive) |
| COC(=O)[C@@H]1C[C@@]23CCCN4CC[C@@]5(c6cccc(OC)c6N(C=O)[C@]15CC2)[C@@H]43 | > 100 µM (inactive) | > 100 µM (inactive) | > 100 µM (inactive) | > 100 µM (inactive) | > 100 µM (inactive) | > 100 µM (inactive) | > 100 µM (inactive) | > 100 µM (inactive) | > 100 µM (inactive) | > 100 µM (inactive) | > 100 µM (inactive) | > 100 µM (inactive) | > 100 µM (inactive) | > 100 µM (inactive) | > 100 µM (inactive) | > 100 µM (inactive) | > 100 µM (inactive) | > 100 µM (inactive) | > 100 µM (inactive) |  |
| O=C1/C(=C\c2ccc(O)cc2)CCC/C1=C/c1ccc(Cl)c(Cl)c1 | 18.8 µM (inactive) | 4.82 µM (inactive) | 3.96 µM (inactive) | 4.19 µM (inactive) | 5.65 µM (inactive) |  | 3.38 µM (inactive) | 2.28 µM (inactive) | 4.17 µM (inactive) |  | 2.73 µM (inactive) | 2.13 µM (inactive) | 7.69 µM (inactive) | 2.32 µM (inactive) |  | 1.89 µM (inactive) | 15.6 µM (inactive) | 2.48 µM (inactive) | 5.3 µM (inactive) | 2.67 µM (inactive) |
| O=C1CCCCC/C1=C\c1ccc(Cl)cc1 | 78.9 µM (inactive) | 37.8 µM (inactive) | 81.1 µM (inactive) | 32.4 µM (inactive) | 20.8 µM (inactive) |  | 73.6 µM (inactive) | 25.2 µM (inactive) | 99.8 µM (inactive) |  | 35.3 µM (inactive) | 34.4 µM (inactive) | 44.3 µM (inactive) | 26.7 µM (inactive) | 25.4 µM (inactive) | 35.4 µM (inactive) | 35.7 µM (inactive) | 28.6 µM (inactive) | 52.6 µM (inactive) |  |
| CCOC(=O)/C(C#N)=C/c1ccc2c(-c3c(OCC)ccc4cc(/C=C(\C#N)C(=O)OCC)ccc34)c(OCC)ccc2c1 | > 100 µM (inactive) | > 100 µM (inactive) | > 100 µM (inactive) | > 100 µM (inactive) | > 100 µM (inactive) | > 100 µM (inactive) | 18.5 µM (inactive) | > 100 µM (inactive) | > 100 µM (inactive) |  | > 100 µM (inactive) | 15.7 µM (inactive) | > 100 µM (inactive) | > 100 µM (inactive) | > 100 µM (inactive) | > 100 µM (inactive) | > 100 µM (inactive) | > 100 µM (inactive) | > 100 µM (inactive) | > 100 µM (inactive) |
